Consider five compounds from PubChem BioAssay AID1918948 (Molecular Pharmacology Branch, DTP, NCI, 2023).

Each structure is given as a SMILES string. pIC50: −log10 of the molar value. “And” between values parts separate entries of the source, which are not always exact repeats. Identical values can stand only once.

This test concerns K-562 leukemia growth, % test/control. The test can be described thus: Anticancer human tumor K-562 cell line growth inhibition.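 For all read-outs here: spheroids exposed to compounds for 7 days.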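 For viability, T/C: 100% = DMSO vehicle wells and lower values mean fewer viable cells.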 The settings on record: spheroids with HUVEC and MSC; for viability, T/C: stronger effect = lower value. The gist of the method:
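Multicellular complex spheroids of tumor cells with human endothelial cells (HUVEC) and mesenchymal stem cells; the LSD1 inhibitor iadademstat was combined with standard-of-care or investigational agents. Top concentration at or near clinical Cmax, half-log dilutions; final DMSO ≤0.25%.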

Setting [1] is: curve of first compound, second compound 0.1 µM.
The mark [2] stands for this setting: curve of first compound, second compound 0.316 µM.
Setting [3] is: curve of first compound, second compound 1 µM.
Setting [4] is: curve of first compound, second compound 3.16 µM.
The mark [5] stands for this setting: curve of first compound, second compound 10 µM.

For `CCN(c1cc(-c2ccc(CN3CCOCC3)cc2)cc(C(=O)NCc2c(C)cc(C)[nH]c2=O)c1C)C1CCOCC1` + NC1CC1c1ccc(-c2cccc(O)c2)cc1, the pIC50 runs as follows: under setting [1], 5.69; under setting [2], 5.71; under setting [3], 5.75; under setting [4], 5.78; under setting [5], 6.04. Further, the viability, T/C was 116% (second compound 0.1 µM, first compound 0.00949 µM); 117% (second compound 0.1 µM, first compound 0.03 µM); 116% (second compound 0.1 µM, first compound 0.0949 µM); 110% (second compound 0.1 µM, first compound 0.3 µM); 82.9% (second compound 0.1 µM, first compound 0.949 µM); 33.5% (second compound 0.1 µM, first compound 3 µM). The viability, T/C by setting is: (second compound 0.316 µM, first compound 0.00949 µM) 115%; (second compound 0.316 µM, first compound 0.03 µM) 117%; (second compound 0.316 µM, first compound 0.0949 µM) 115%; (second compound 0.316 µM, first compound 0.3 µM) 108%; (second compound 0.316 µM, first compound 0.949 µM) 80.5%; (second compound 0.316 µM, first compound 3 µM) 31.6%. The viability, T/C was 108% (second compound 1 µM, first compound 0.00949 µM); 111% (second compound 1 µM, first compound 0.03 µM); 118% (second compound 1 µM, first compound 0.0949 µM); 110% (second compound 1 µM, first compound 0.3 µM); 75.9% (second compound 1 µM, first compound 0.949 µM); 28.9% (second compound 1 µM, first compound 3 µM). Also, the viability, T/C (second compound 3.16 µM, first compound 0.00949 µM) was 109%; the viability, T/C (second compound 3.16 µM, first compound 0.03 µM) was 111%; the viability, T/C (second compound 3.16 µM, first compound 0.0949 µM) was 114%; the viability, T/C (second compound 3.16 µM, first compound 0.3 µM) was 103%; the viability, T/C (second compound 3.16 µM, first compound 0.949 µM) is 70.8%; the viability, T/C (second compound 3.16 µM, first compound 3 µM) was 27.7%. The viability, T/C reads like this: (second compound 10 µM, first compound 0.00949 µM) 105%; (second compound 10 µM, first compound 0.03 µM) 109%; (second compound 10 µM, first compound 0.0949 µM) 109%; (second compound 10 µM, first compound 0.3 µM) 92.2%; (second compound 10 µM, first compound 0.949 µM) 48.5%; (second compound 10 µM, first compound 3 µM) 20.1%.
As to `CC(C)c1c(-c2ccccc2)nc2c(C#N)c[nH]n2c1=O`, the viability, T/C is 104% and 100% (compound 0.0316 µM); 98.4% and 97% (compound 0.1 µM); 102% and 101% (compound 0.316 µM); 99% and 102% (compound 1 µM); 106% and 109% (compound 3.16 µM); 107% and 108% (compound 10 µM). The pIC50 (curve of compound) is below 5.00.
Take `CC(C)CC(NC(=O)C(Cc1ccccc1)NC(=O)c1cnccn1)B(O)O` (stereo unspecified) + NC1CCC(NC2CC2c2ccccc2)CC1: the pIC50 is 8.72 under setting [1]; 8.71 under setting [2]; 8.71 under setting [3]; 8.75 under setting [4]; 9.01 under setting [5]. In addition, the viability, T/C (second compound 0.1 µM, first compound 0.000316 µM) is 99%; the viability, T/C (second compound 0.1 µM, first compound 0.001 µM) was 101%; the viability, T/C (second compound 0.1 µM, first compound 0.00316 µM) is 10.2%; the viability, T/C (second compound 0.1 µM, first compound 0.01 µM) is 2.14%; the viability, T/C (second compound 0.1 µM, first compound 0.0316 µM) is 1.84%; the viability, T/C (second compound 0.1 µM, first compound 0.1 µM) is 0.67%. Also, the viability, T/C reads like this: (second compound 0.316 µM, first compound 0.000316 µM) 99.3%; (second compound 0.316 µM, first compound 0.001 µM) 102%; (second compound 0.316 µM, first compound 0.00316 µM) 12.7%; (second compound 0.316 µM, first compound 0.01 µM) 2.31%; (second compound 0.316 µM, first compound 0.0316 µM) 0.86%; (second compound 0.316 µM, first compound 0.1 µM) 2.09%. The viability, T/C runs as follows: (second compound 1 µM, first compound 0.000316 µM) 104%; (second compound 1 µM, first compound 0.001 µM) 101%; (second compound 1 µM, first compound 0.00316 µM) 13.5%; (second compound 1 µM, first compound 0.01 µM) 1.19%; (second compound 1 µM, first compound 0.0316 µM) 1.68%; (second compound 1 µM, first compound 0.1 µM) 1.1%. Besides, the viability, T/C runs as follows: (second compound 3.16 µM, first compound 0.000316 µM) 105%; (second compound 3.16 µM, first compound 0.001 µM) 87.8%; (second compound 3.16 µM, first compound 0.00316 µM) 11.7%; (second compound 3.16 µM, first compound 0.01 µM) 1.18%; (second compound 3.16 µM, first compound 0.0316 µM) 2.66%; (second compound 3.16 µM, first compound 0.1 µM) 0.99%. In addition, the viability, T/C was 97.1% (second compound 10 µM, first compound 0.000316 µM); 49% (second compound 10 µM, first compound 0.001 µM); 9.37% (second compound 10 µM, first compound 0.00316 µM); 1.01% (second compound 10 µM, first compound 0.01 µM); 0.67% (second compound 10 µM, first compound 0.0316 µM); 1.77% (second compound 10 µM, first compound 0.1 µM).
For the compound `Nc1ncn(C2CC(O)C(CO)S2)c(=O)n1` (stereo unspecified), the viability, T/C reads like this: (compound 0.000949 µM) 111% and 100%; (compound 0.003 µM) 109% and 106%; (compound 0.00949 µM) 109% and 105%; (compound 0.03 µM) 94.4% and 87.5%; (compound 0.0949 µM) 67.2% and 53.8%; (compound 0.3 µM) 37.7% and 19.5%. In addition, the pIC50 (curve of compound) was 6.73 and 6.97.
For the compound `CCN(c1cc(-c2ccc(CN3CCOCC3)cc2)cc(C(=O)NCc2c(C)cc(C)[nH]c2=O)c1C)C1CCOCC1`, the viability, T/C is 110% and 112% (compound 0.00949 µM); 107% and 112% (compound 0.03 µM); 105% and 114% (compound 0.0949 µM); 105% (compound 0.3 µM); 107% and 76.7% (compound 0.949 µM); 104% and 38.9% (compound 3 µM). In addition, where the note is “curve of compound”, the pIC50 was < 5.52 and 5.67.
